Experimental data reported in article PMC4001449, “Thienoquinolines as Novel Disruptors of the PKCε/RACK2 Protein–Protein Interaction” (Journal of Medicinal Chemistry, 2014).

Columns and labels:
PKCε/RACK2 interaction = target: T1, PKCε/RACK2 interaction (Homo sapiens, UniProt P35606); assay: PKCε/RACK2 in vitro binding assay (ELISA-based); conditions: 25 μM solution, Figure 2A
T1 sequence (P35606 1-906): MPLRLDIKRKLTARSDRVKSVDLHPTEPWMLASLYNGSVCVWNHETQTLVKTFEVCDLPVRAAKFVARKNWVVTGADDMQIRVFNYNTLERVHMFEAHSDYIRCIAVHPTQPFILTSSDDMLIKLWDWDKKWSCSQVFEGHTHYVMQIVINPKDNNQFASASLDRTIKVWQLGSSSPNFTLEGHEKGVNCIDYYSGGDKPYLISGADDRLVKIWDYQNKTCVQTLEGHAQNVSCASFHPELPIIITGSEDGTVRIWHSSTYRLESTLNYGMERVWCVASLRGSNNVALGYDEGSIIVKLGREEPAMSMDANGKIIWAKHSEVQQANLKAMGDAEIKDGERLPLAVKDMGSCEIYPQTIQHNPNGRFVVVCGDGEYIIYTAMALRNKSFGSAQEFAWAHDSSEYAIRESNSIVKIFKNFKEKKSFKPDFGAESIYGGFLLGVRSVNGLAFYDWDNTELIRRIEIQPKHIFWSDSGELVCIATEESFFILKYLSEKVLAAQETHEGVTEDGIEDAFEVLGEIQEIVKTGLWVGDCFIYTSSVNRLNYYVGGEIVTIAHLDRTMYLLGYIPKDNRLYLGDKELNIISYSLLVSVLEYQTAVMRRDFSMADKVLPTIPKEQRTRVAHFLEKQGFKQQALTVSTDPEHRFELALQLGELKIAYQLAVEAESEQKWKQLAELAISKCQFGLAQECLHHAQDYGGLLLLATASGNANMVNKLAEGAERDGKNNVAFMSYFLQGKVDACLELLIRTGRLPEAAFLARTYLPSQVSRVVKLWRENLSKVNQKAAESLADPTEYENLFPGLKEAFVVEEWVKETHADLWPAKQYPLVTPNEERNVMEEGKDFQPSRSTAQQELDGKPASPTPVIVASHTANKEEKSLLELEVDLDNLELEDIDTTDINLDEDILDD
Experimental: Recombinant RACK2 tagged with maltose-binding protein (RACK2-MBP) was purified on columns with amylose resin (New England Biolabs, Ipswich, MA) as described by the manufacturer. The recombinant protein was analyzed by Coomassie Blue staining and Western blotting after SDS–PAGE. Aliquots were stored in liquid nitrogen. The interaction between PKCε and RACK2 was measured using an ELISA-based assay. The 96-well EIA/RIA high binding plates (Costar) were coated with 100 ng of recombinant PKCε (ProQinase, Freiburg, Germany) in buffer A (20 mM Tris-HCl/100 mM NaCl, pH 7.5) at 4 °C on a shaker with gentle agitation overnight. The plate was washed twice with 225 μL/well buffer A. After blocking of unspecific binding sites with 225 μL of sterile-filtered 3% bovine serum albumin (BSA; Sigma-Aldrich, St. Louis, MO) in buffer A at room temperature for 3 h, the plate was washed twice with 225 μL of this buffer. PKCε was left untreated or activated by addition of 60 μg/mL phosphatidylserine (Sigma-Aldrich) and 100 nM TPA (Sigma-Aldrich) in a volume of 50 μL of buffer A for 10 min at 30 °C. […] Color development was measured on a plate reader at a wavelength of 420 nm.

PKCε = PKCε translocation, cell fractionation and Western blotting in PC-3 cells; type: cell-based, human; conditions: Figure 3
Experimental: For PKCε translocation PC-3 cells were starved for 16 h, treated with 8 for 30 min, stimulated with 50 nM TPA for 5 min, lysed, and fractionated with a CNMCS/CNM compartmental protein extraction kit (BioChain Institute, Newark, CA). Western blotting was performed by a standard procedure as described by Garczarczyk et al.[27],[40] Cytosolic and membrane fractions were loaded onto SDS gels and transferred to an Immobilon membrane (Millipore, Billerica, MA). The membranes were incubated with rabbit polyclonal IgG antibodies for detection of PKCε (Santa Cruz Biotechnology; dilution 1:2000), for PKCε phosphoSer^729 (Millipore; dilution 1:1000), for PKCδ (Santa Cruz Biotechnology; dilution 1:1000), and for MARCKS phosphoSer152/156 (Cell Signaling Technology, Danvers, MA; dilution 1:1000). For the loading control tubulin (Santa Cruz Biotechnology; dilution 1:1000), and as marker for the membrane fraction, an IGFI-βR rabbit polyclonal IgG antibody (Santa Cruz; dilution 1:1000) and, as secondary antibodies, peroxidase-conjugated AffiniPure goat anti-rabbit IgG (Jackson ImmunoResearch Laboratories, West Grove, PA; dilution 1:20000) were used. GAPDH (Chemicon, Millipore, Billerica, MA; dilution 1:10000) was used as loading control for the cytosolic fraction. […]

[1] = test system: VEGF-induced angiogenesis in chicken egg; assay: Chicken egg angiogenesis assay; type: in vivo; conditions: Figure 8
Experimental: Eggs from hen were incubated at 37 °C for 3 days, opened, and incubated for further 7 days. After further incubation for 5 days, angiogenesis was observed by microscope.

BTK = BTK (Homo sapiens, UniProt Q06187); assay: Kinase profiling (Dundee), BTK; type: biochemical; conditions: 25 μM solution
Sequence of BTK (Q06187 whole entry, species assumed): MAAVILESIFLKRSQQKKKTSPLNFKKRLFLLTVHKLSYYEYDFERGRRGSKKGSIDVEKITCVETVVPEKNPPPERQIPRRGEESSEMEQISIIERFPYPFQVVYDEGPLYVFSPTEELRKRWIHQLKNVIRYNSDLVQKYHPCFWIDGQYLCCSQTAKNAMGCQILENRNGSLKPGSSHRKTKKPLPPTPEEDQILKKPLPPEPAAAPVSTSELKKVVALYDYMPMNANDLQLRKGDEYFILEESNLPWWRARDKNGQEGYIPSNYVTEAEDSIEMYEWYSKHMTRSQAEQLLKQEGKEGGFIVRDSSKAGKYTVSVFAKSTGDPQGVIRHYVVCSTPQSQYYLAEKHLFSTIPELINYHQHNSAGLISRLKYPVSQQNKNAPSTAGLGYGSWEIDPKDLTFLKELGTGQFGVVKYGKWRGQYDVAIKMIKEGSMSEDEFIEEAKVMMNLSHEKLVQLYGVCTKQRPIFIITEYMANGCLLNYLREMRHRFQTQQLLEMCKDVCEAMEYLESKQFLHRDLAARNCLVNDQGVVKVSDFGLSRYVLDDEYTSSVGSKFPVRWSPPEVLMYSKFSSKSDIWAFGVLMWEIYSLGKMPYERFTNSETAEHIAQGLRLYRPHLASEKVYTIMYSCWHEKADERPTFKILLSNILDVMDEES

PKCε/RACK2 interaction, % of untreated controls (PKCε/RACK2 interaction): approximately 10 % of untreated controls
BTK activity, % of control (BTK): 42 % of control
Structure (SMILES): CC(=O)c1cccc(NC(=O)c2sc3nc4cc5c(cc4cc3c2N)OCCO5)c1 [Compound 8, N-(3-acetylphenyl)-9-amino-2,3-dihydro-1,4-dioxino[2,3-g]thieno[2,3-b]quinoline-8-carboxamide]
Ser729-phosphorylated PKCε at the membrane (PKCε; TPA): did not reduce
Translocation of activated and phosphorylated PKCε to the membrane fraction (PKCε; TPA-induced): partially inhibits
Induction of angiogenesis by vascular endothelial growth factor [1]: inhibited
